One assay concerns the target T1, nociceptin receptor (Homo sapiens, UniProt P41146).
T1 construct: expressed in transfected cells
Put plainly: Nociceptin receptor binding assay ([3H]nociceptin, cell membrane suspension). Particulars: [3H]nociceptin 0.08 nM, 25° C., 60 minutes; Ki calculated from IC50 and Kd; read-out: Affinity for nociceptin receptors Ki. The protocol:
A cell membrane suspension obtained from a human nociceptin-expressing cell was prepared so that it contained 5 to 10 μg/mL of the membrane protein in a Tris buffer [50 mM Tris-HCl (pH 7.8), 5 mM MgCl2, 1 mM EGTA, 0.1% BSA]. To this, [^3H]nociceptin (diluted at the final concentration of 0.08 nM with the Tris buffer) and a tested substance were added and the mixture was incubated at 25° C. for 60 minutes. Using a cell harvester and a washing solution [50 mM Tris-HCl (pH 7.8), 4° C.], the membrane was recovered onto a GF/B filter which had been pretreated with 0.3% PEI, which was then washed further 4 times. The filter was transferred to a vial, to which a scintillator was added, and the radioactivity was measured using a liquid scintillation counter. Noted that a non-specific binding was regarded as a binding in the presence of 10 μM nociceptin, and a specific binding was obtained by subtracting the non-specific binding from the total binding. From a ratio of binding inhibition in the presence of the tested substance, an IC50 value was obtained, and was then used together with the Kd value for [^3H]nociceptin to calculate the K1 value for the tested substance.

The target of the next assay is T2, μ-receptor (Homo sapiens, UniProt P35372).
T2 construct: purchased Receptor Biology
Put plainly: μ-Receptor binding assay ([3H]diprenorphine, cell membrane preparation). Particulars: [3H]diprenorphine 0.13 nM, 25° C., 90 minutes; Ki calculated from IC50 and Kd; read-out: Affinity for μ-receptor Ki. The protocol:
A human μ-receptor-expressing cell membrane preparation (Receptor Biology) was prepared so that it contained 8.5 μg/mL of the membrane protein in a Tris buffer [50 mM Tris-HCl (pH 7.8), 5 MM MgCl2, 1 mM EGTA, 0.1% BSA]. To this, [^3H]diprenorphine (diluted at the final concentration of 0.13 nM with the Tris buffer) and a tested substance were added and the mixture was incubated at 25° C. for 90 minutes. Using a cell harvester and a washing solution [50 mM Tris-HCl (pH 7.8), 4° C.], the membrane was recovered onto a GF/B filter which had been pretreated with 0.3% PEI, which was then washed further 4 times. The filter was transferred to a vial, to which a scintillator was added, and the radioactivity was measured using a liquid scintillation counter. A non-specific binding was regarded as a binding in the presence of 100 μM naloxone, and a specific binding was obtained by subtracting the non-specific binding from the total binding. From a ratio of binding inhibition in the presence of the tested substance, and IC50 value was obtained, and was then used together with the Kd value for [^3H]diprenorphine to calculate the Ki value of the tested substance.

Assay [1] has as its system acetic acid-induced writhing reactions in mice. Put plainly: Acetic acid-writhing test in mice. Particulars: 10 nmol/animal intrathecal, male mice, counted over 20 minutes after 0.6% acetic acid intraperitoneally; for Number of writhings (individual animal): animal No. 1-10; for Number of writhings (Mean): mean of 10 animals (saline control 17.67). Format: in vivo, mice (Slc:ddY). The protocol:
Ten male mice (Slc:ddY, 4 to 5 weeks old) were assigned to each group. The dorsal skin of each mouse was incised laterally in a length of approximately 3 cm, and after acclimatizing for 30 minutes or longer a 27G needle fitted on the tip of a silicone tube connected to a microsyringe was inserted into a position around L3-L4, through which 5 μL of a drug solution was infused, whereby effecting an administration into a spinal subarachnoid cavity. The tested substance was dissolved in physiological saline, and administered at 10 nmol/animal. In a control group, physiological saline was administered similarly.
A mouse which had been fasting since the day before the experiment was placed in an observation cage (20×20×15 cm), where it was allowed to be acclimatized over a period of 30 minutes or longer, and then received 100 μL per 10 g body weight of a 0.6% acetic acid solution intraperitoneally via a 27G needle. The number of the writhing reactions with stretching the abdomen was counted over 20 minutes after the administration of acetic acid, and the obtained data were represented as means±standard errors. Only the screening data were subjected to the test for a significant difference by a t test between the two groups of the control and a treatment group or by one-way analysis of variance among multiple groups followed by Dunnett's multiple comparison test, and the significant difference was regarded to be present when p<0.05.

Values joined by “and” are separate entries in the source; they are usually repeats but may differ in a detail not shown here. Identical values can stand only once. Counter-ions that a name gives are not always drawn.

T1 sequence (P41146 whole entry): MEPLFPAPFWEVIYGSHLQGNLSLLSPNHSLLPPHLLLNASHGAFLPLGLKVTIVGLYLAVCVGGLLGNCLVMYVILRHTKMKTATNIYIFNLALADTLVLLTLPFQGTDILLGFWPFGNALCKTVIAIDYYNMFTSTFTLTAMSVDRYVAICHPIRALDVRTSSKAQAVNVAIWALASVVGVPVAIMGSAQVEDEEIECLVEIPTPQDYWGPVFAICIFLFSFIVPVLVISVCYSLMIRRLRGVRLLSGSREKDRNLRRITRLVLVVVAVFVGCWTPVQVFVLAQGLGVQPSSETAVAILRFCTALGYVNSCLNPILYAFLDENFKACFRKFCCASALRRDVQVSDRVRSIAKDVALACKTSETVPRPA
T2 sequence (P35372 whole entry): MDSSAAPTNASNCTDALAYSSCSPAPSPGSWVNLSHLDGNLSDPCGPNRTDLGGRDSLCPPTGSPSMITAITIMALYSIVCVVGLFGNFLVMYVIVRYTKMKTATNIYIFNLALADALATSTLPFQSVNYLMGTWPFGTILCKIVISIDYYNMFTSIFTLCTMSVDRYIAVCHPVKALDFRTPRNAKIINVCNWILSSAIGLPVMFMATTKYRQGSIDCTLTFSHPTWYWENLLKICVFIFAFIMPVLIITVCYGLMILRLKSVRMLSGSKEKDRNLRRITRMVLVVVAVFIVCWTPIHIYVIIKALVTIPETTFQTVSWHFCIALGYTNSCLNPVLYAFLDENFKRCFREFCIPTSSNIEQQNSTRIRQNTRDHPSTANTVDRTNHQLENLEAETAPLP

Consider `COc1ccc2nc(C=Cc3ccc(Cl)cc3)nc(NCCCCCCNC(=N)N)c2c1` [Example 16, N-Amidino-N′-[2-(4-chlorostyryl)-6-methoxyquinazolin-4-yl]-1,6-hexanediamine Dihydrochloride], for which the Ki at nociceptin receptor was 9 nM; on μ-receptor it was 38 nM.
The like results for `COc1ccc2nc(C=Cc3ccccn3)nc(NC[C@H]3CC[C@@H](CNC(=N)N)CC3)c2c1` [Example 44, cis-N-Amidino-N′-{6-methoxy-2-[2-(2-pyridyl)ethenyl]quinazolin-4-yl}-1,4-bis(aminomethyl)cyclohexane Trihydrochloride] were, in that order, 7 nM and 30 nM.
`COc1ccc2nc(C=Cc3ccccn3)nc(N[C@H]3CC[C@@H](CNC(=N)N)C[C@H]3C)c2c1` (relative stereo) [Example 68, cis-4-Guanidinomethyl-cis-2-methyl-N-{6-methoxy-2-[2-(2-pyridyl)ethenyl]quinazolin-4-yl}cyclohexylamine Trihydrochloride]: the Ki at nociceptin receptor is 3 nM; at μ-receptor, 32 nM.
Turning to “cis-4-Guanidinomethyl-N-{2-[2-(2-pyridyl)ethenyl]-6-methoxyquinazolin-4-yl}cyclohexylamine Trihydrochloride [Example 4]”, the Ki on nociceptin receptor was 8 nM; on μ-receptor, 63 nM. Also, in assay [1] (listed as Ex. 4, Trihydrochloride), the “Number of writhings (individual animal)” value was 18 and 12 (2×) and 10 and 0 (2×) and 2 and 11 and 1 and 13. Also, the “Number of writhings (Mean)” value in assay [1] is recorded as 7.90.
On to `COc1ccc2nc(C=Cc3ccccn3)nc(NC(C)CCCCCNC(=N)N)c2c1.Cl.Cl.Cl` (stereo not drawn) [Example 48, N-Amidino-6-{6-methoxy-2-[2-(2-pyridyl)ethenyl]quinazolin-4-yl}aminoheptylamine Trihydrochloride], for which the “Number of writhings (individual animal)” value in assay [1] (listed as Ex. 48, Trihydrochloride) is 7 and 0 (4×) and 6 and 16 and 1 and 14 and 12. The “Number of writhings (Mean)” value in assay [1] stood at 5.60.
For `COc1ccc2nc(C=Cc3ccccn3)nc(NCCCCCCNC(=N)N)c2c1.Cl.Cl` [Example 23, N-Amidino-N′-{6-methoxy-2-[2-(2-pyridyl)ethenyl]quinazolin-4-yl}-1,6-hexanediamine Dihydrochloride], the Ki was 3 nM at nociceptin receptor and 19 nM at μ-receptor. Besides, in assay [1] (listed as Ex. 23, Dihydrochloride), the “Number of writhings (individual animal)” value is 14 and 0 (5×) and 6 and 18 and 28 and 3. The “Number of writhings (Mean)” value in assay [1] turned out to be 6.90.
Regarding `COc1ccc2nc(C=Cc3ccccn3)nc(NCCN(CCc3ccccc3)C(=N)N)c2c1` [Example 66, N-Amidino-2-{6-methoxy-2-[2-(2-pyridyl)ethenyl]quinazolin-4-yl}aminoethyl-phenylethylamine Trihydrochloride], the values for the Ki on nociceptin receptor and at μ-receptor were 4 nM and 22 nM, respectively.
Take `COc1ccc2nc(NC(=O)c3ccc(Cl)cc3)nc(N[C@H]3CCCC[C@H]3NC(=N)N)c2c1` (relative stereo) [Example 2, cis-N-Amidino-2-[2-(4-chlorobenzoylamino)-6-methoxyquinazolin-4-yl]aminocyclohexylamine Dihydrochloride]: the values for the Ki at nociceptin receptor and on μ-receptor were 6 nM and 193 nM, respectively.
For `Cc1ccc2nc(C=Cc3ccccn3)nc(NCCCCCCNC(=N)N)c2c1.Cl.Cl.Cl` [Example 46, N-Amidino-N′-{6-methyl-2-[2-(2-pyridyl)ethenyl]quinazolin-4-yl}-1,6-hexanediamine Trihydrochloride], the Ki at nociceptin receptor is 3 nM; on μ-receptor, 23 nM. Besides, the “Number of writhings (individual animal)” value in assay [1] (listed as Ex. 46, Trihydrochloride) is 0 (4×) and 13 and 6 and 3 and 10 and 4 and 9. Moreover, in assay [1], the “Number of writhings (Mean)” value came out at 4.50.

(Values after patent US6794389B2, “Quinazoline derivatives and drugs” (Nippon Shinyaku Co., Ltd., priority 2000, dated 2004).)
